# Test results as given in publication PMC9696309 (Metabolites, 2022).
# Read-outs that look alike come from different tables or passages of the source.
# How the values were obtained:
# SARS-CoV-2 = assay: microbe, parasite or virus in culture; type: cell-based
# in vitro = settings: African green monkey
# [1] = system: severe acute RS-CoV 3CL^pr°; settings: inhibition of severe acute RS-CoV 3CL^pr° activity; cited from earlier work
Compound,IC50 (SARS-CoV-2) [µM],IC50 (SARS-CoV-2; Severe acute respiratory syndrome coronavirus 2) [µM],CC50 (in vitro) [µM],IC50 [1] [µM]
"COc1c(O)cc2oc(-c3ccc(O)cc3)c(OC)c(=O)c2c1O [Compound 7, 5,7,4’-trihydroxy-3,6-dimethoxy flavone]",664,664,1070,
"CC[C@H](CC[C@@H](C)[C@H]1CC[C@H]2[C@@H]3CC=C4C[C@@H](O[C@@H]5O[C@H](CO)[C@@H](O)[C@H](O)[C@H]5O)CC[C@]4(C)[C@H]3CC[C@]12C)C(C)C [Compound 9, daucosterol]",,,2550,
O=c1cc(-c2ccc(O)c(O)c2)oc2cc(O)cc(O)c12 [luteolin],,,,20.2
"COc1ccc(-c2coc3cc(O)ccc3c2=O)cc1 [Compound 3, formononetin]",,,1720,
O=c1cc(-c2ccc(O)cc2)oc2cc(O)cc(O)c12 [apigenin],,,,281
